Assay results as given in US9795678B2, “Fast-acting insulin composition comprising a substituted anionic compound and a polyanionic compound” (ADOCIA, priority 2014, dated 2017).

What was measured:
[1] = cited from earlier work
[2] = target: T1, hexameric structure of human insulin (Homo sapiens, UniProt P01308); assay: Circular dichroism, CD signal of human insulin at 276 nm; type: physicochemical; details: rhINS 100 IU/ml; Compound 7.3 mg/mL
T1 construct: the insulin is a recombinant human insulin as described in the European pharmacopea and the American pharmacopea
T1 sequence (P01308 25-54 limits assumed): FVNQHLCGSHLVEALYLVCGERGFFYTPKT
T1 sequence (P01308 90-110 limits assumed): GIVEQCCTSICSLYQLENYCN
Procedure: The CD signal at 276 nm is characteristic of the hexameric form of insulin (hexamer signal at about −300°, dimer signal between −200° and −250° and monomer signal below −200°). Loss of the CD signal at 276 nm is thus characteristic of a destabilization of the hexamer into dimers or monomers.

[3] = target: hexameric form R6 of lispro insulin (Homo sapiens, UniProt P01308, K53P/P52K); assay: Circular dichroism, CD signal of lispro insulin at 240 nm; details: lispro insulin 100 IU/mL; substituted anionic compound 7.3 mg/mL; citrate 9.3 mM; EDTA 300 μM
hexameric form R6 of lispro insulin, sequence (P01308 25-54 P52K/K53P limits assumed): as the sequence (P01308 25-54 limits assumed) above, with P28K, K29P counted along it

| Impact on the hexameric structure of human insulin (CD signal at 276 nm) [2] | Impact on the R6 form of lispro insulin (CD signal at 240 nm) [3] | Compound | delay of action when compared with a rapid insulin analog (dissociation of hexamers into dimers and monomers) ([1]; Brange J., et al., 1999) | time after which a hypoglycemiant effect occurs ([1]; injected subcutaneously, diabetic patients) |
| --- | --- | --- | --- | --- |
|  |  | human insulin: human insulin produced by genetic engineering | up to 20 minutes | 60 min |
| no impact | no impact | O=C(O)CC(O)(CC(=O)O)C(=O)O [citrate] |  |  |
| very pronounced impact | completely destructures | O=C(O)CN(CCN(CC(=O)O)CC(=O)O)CC(=O)O [EDTA] |  |  |

| Compound | Impact on the hexameric structure of human insulin (CD signal at 276 nm) [2] | Impact on the R6 form of lispro insulin (CD signal at 240 nm) [3] | delay of action when compared with a rapid insulin analog (dissociation of hexamers into dimers and monomers) ([1]; Brange J., et al., 1999) | time after which a hypoglycemiant effect occurs ([1]; injected subcutaneously, diabetic patients) |
| --- | --- | --- | --- | --- |
| O=C(O)CCC(=O)N[C@@H](Cc1ccccc1)C(=O)O [Substituted anionic compound A1, N-(3-carboxy-1-oxopropyl-)-L-phenylalanine] | no impact |  |  |  |
